Bounds are passed on as bounds.

What is called EC50 is the midpoint of the concentration-response curve.

For one experiment, the system named is HCV replicons (NS3-NS5B regions of HCV type Ib) in Huh-7 luc/neo cells. Kind of experiment: HCV replicon assay (Huh-Luc luciferase reporter). The class given is cell-based. To be noted: Hepatitis C virus, Huh-7, 72 h. The procedure: The in vitro antiviral activity against HCV of the compounds of formula (I) was tested in a cellular HCV replicon system based on Lohmann et al. (1999) Science 285:110-113, with the further modifications described by Krieger et al. (2001) Journal of Virology 75: 4614-4624, which is further exemplified in the examples section. This model, while not a complete infection model for HCV, is widely accepted as the most robust and efficient model of autonomous HCV RNA replication currently available. […] It will be appreciated that it is important to distinguish between compounds that specifically interfere with HCV functions from those that exert cytotoxic or cytostatic effects in the HCV replicon model, and as a consequence cause a decrease in HCV RNA or linked reporter enzyme concentration. Assays are known in the field for the evaluation of cellular cytotoxicity based for example on the activity of mitochondrial enzymes using fluorogenic redox dyes such as resazurin. Furthermore, cellular counter screens exist for the evaluation of non-selective inhibition of linked reporter gene activity, such as firefly luciferase. Appropriate cell types can be equipped by stable transfection with a luciferase reporter gene whose expression is dependent on a constitutively active gene promoter, and such cells can be used as a counter-screen to eliminate non-selective inhibitors.
The compounds of formula (I) were examined for activity in the inhibition of HCV RNA replication in a cellular assay. […] The cellular assay was based on a bicistronic expression construct, as described by Lohmann et al. (1999) Science vol. 285 pp. 110-113 with modifications described by Krieger et al. (2001) Journal of Virology 75: 4614-4624, in a multi-target screening strategy. In essence, the method was as follows.
The assay utilized the stably transfected cell line Huh-7 luc/neo (hereafter referred to as Huh-Luc). This cell line harbors an RNA encoding a bicistronic expression construct comprising the wild type NS3-NS5B regions of HCV type Ib translated from an Internal Ribosome Entry Site (IRES) from encephalomyocarditis virus (EMCV), preceded by a reporter portion (FfL-luciferase), and a selectable marker portion (neo^R, neomycine phosphotransferase). The construct is bordered by 5′ and 3′ NTRs (non-translated regions) from HCV type Ib. Continued culture of the replicon cells in the presence of G418 (neo^R) is dependent on the replication of the HCV RNA. The stably transfected replicon cells that express HCV RNA, which replicates autonomously and to high levels, encoding inter alia luciferase, are used for screening the antiviral compounds.
The replicon cells were plated in 384 well plates in the presence of the test and control compounds which were added in various concentrations. Following an incubation of three days, HCV replication was measured by assaying luciferase activity (using standard luciferase assay substrates and reagents and a Perkin Elmer ViewLux™ ultraHTS microplate imager). Replicon cells in the control cultures have high luciferase expression in the absence of any inhibitor. The inhibitory activity of the compound on luciferase activity was monitored on the Huh-Luc cells, enabling a dose-response curve for each test compound.
For orientation: A replicon is a self-replicating genome or part of one, used to study replication in cells.
The molecule `COc1ccc2c(O[C@@H]3C[C@H]4C(=O)N[C@]5(C(=O)O)C[C@H]5/C=C\CCCCCC(C)(C)C(=O)N4C3)cc(-c3nc(C(C)C)cs3)nc2c1Cl` [Compound 54, 18-[8-chloro-2-(4-isopropylthiazol-2-yl)-7-methoxyquinolin-4-yloxy]-14,14-dimethyl-2,15-dioxo-3,16-diazatricyclo[14.3.0.0^4,6]nonadec-7-ene-4-carboxylic acid] yielded an EC50 of at least 10000 nM.

The experiment is the same for the next values; noted with them: Hepatitis C virus, Huh-7, 72 h; Huh-Luc replicon cells, three days incubation, luciferase activity; read-out: EC50.
In the case of `COc1ccc2c(O[C@@H]3C[C@H]4C(=O)N[C@]5(C(=O)NS(=O)(=O)C6CC6)C[C@H]5CCCCCCCC(=O)N4C3)cc(-c3nc(C(C)C)cs3)nc2c1` (stereo in doubt) [Compound 64, N-[17-[2-(4-isopropylthiazol-2-yl)-7-methoxyquinolin-4-yloxy]-2,14-dioxo-3,15-diazatricyclo[13.3.0.0^4,6]octadecane-4-carbonyl]-(cyclopropyl)sulfonamide], the EC50 stood at 67 nM. Regarding `COc1ccc2c(O[C@@H]3C[C@H]4C(=O)N[C@]5(C(=O)O)C[C@H]5/C=C\CCCCCCC(=O)N4C3)cc(-c3nc(C(C)C)cs3)nc2c1` [Compound 10, 18-[2-[4-(isopropyl)thiazol-2-yl]-7-methoxyquinolin-4-yloxy]-2,15-dioxo-3,16-diazatricyclo[14.3.0.0^4,6]nonadec-7-ene-4-carboxylic acid], the EC50 was found to be 5040 nM. For `COc1ccc2c(O[C@@H]3C[C@H]4C(=O)N[C@]5(C(=O)O)C[C@H]5/C=C\CCCCCCC(=O)N4C3)cc(-c3csc(NC(C)C)n3)nc2c1` [Compound 12, 18-[2-[2-(isopropylamino)thiazol-4-yl]-7-methoxyquinolin-4-yloxy]-2,15-dioxo-3,16-diazatricyclo[14.3.0.0^4,6]nonadec-7-ene-4-carboxylic acid], the EC50 was found to be 1980 nM. As to `COc1ccc2c(O[C@@H]3C[C@H]4C(=O)N[C@]5(C(=O)NS(=O)(=O)C6CC6)C[C@H]5/C=C\CCCCCCC(=O)N4C3)cc(-c3csc(NC(C)C)n3)nc2c1` [Compound 13, N-[[18-[2-[2-(isopropylamino)thiazol-4-yl]-7-methoxyquinolin-4-yloxy]-2,15-dioxo-3,16-diazatricyclo[14.3.0.0^4,6]nonadec-7-en-4-yl]carbonyl](cyclopropyl)sulfonamide], the EC50 was found to be 20 nM.

For `COc1ccc2c(O[C@@H]3C[C@H]4C(=O)N[C@]5(C(=O)NS(=O)(=O)C6CC6)C[C@H]5/C=C\CCCCCCC(=O)N4C3)cc(-c3nccs3)nc2c1C` [Compound 26, N-[18-[2-(thiazol-2-yl)-7-methoxy-8-methylquinolin-4-yloxy]-2,15-dioxo-3,16-diazatricyclo[14.3.0.0^4,6]nonadec-7-ene-4-carbonyl]-(cyclopropyl)sulfonamide], the EC50 turned out to be 4 nM. Regarding `COc1ccc2c(O[C@@H]3C[C@H]4C(=O)N[C@]5(C(=O)O)C[C@H]5/C=C\CCCCCCC(=O)N4C3)cc(-c3nc(C(C)C)cs3)nc2c1C` [Compound 29, 18-[2-(4-isopropylthiazol-2-yl)-7-methoxy-8-methylquinolin-4-yloxy]-2,15-dioxo-3,16-diazatricyclo[14.3.0.0^4,6]nonadec-7-ene-4-carboxylic acid], the EC50 came to 1960 nM.

Consider `COc1ccc2c(O[C@@H]3C[C@H]4C(=O)N[C@]5(C(=O)NS(=O)(=O)C6CC6)C[C@H]5/C=C\CCCCCCC(=O)N4C3)cc(-c3nc(C(C)C)cs3)nc2c1C` [Compound 30, N-[18-[2-(4-isopropylthiazol-2-yl)-7-methoxy-8-methylquinolin-4-yloxy]-2,15-dioxo-3,16-diazatricyclo[14.3.0.0^4,6]nonadec-7-ene-4-carbonyl](cyclopropyl)sulfonamide], for which the EC50 worked out at 6 nM. For `COc1ccc2c(O[C@@H]3C[C@H]4C(=O)N[C@]5(C(=O)O)C[C@H]5/C=C\CCCCCCC(=O)N4C3)cc(-c3nccs3)nc2c1` [Compound 31, 18-[7-methoxy-2-(thiazol-2-yl)quinolin-4-yloxy]-2,15-dioxo-3,16-diazatricyclo[14.3.0.0^4,6]nonadec-7-ene-4-carboxylic acid], the concentration for a half-maximal effect (EC50) stood at 4940 nM. `COc1ccc2c(O[C@@H]3C[C@H]4C(=O)N[C@]5(C(=O)NS(=O)(=O)C6CC6)C[C@H]5/C=C\CCCCCCC(=O)N4C3)cc(-c3nccs3)nc2c1` [Compound 32, N-[18-[7-methoxy-2-(thiazol-2-yl)quinolin-4-yloxy]-2,15-dioxo-3,16-diazatricyclo[14.3.0.0^4,6]nonadec-7-ene-4-carbonyl](cyclopropyl)-sulfonamide]: the EC50 is 17 nM.

For the molecule `COc1ccc2c(O[C@@H]3C[C@H]4C(=O)N[C@]5(C(=O)O)C[C@H]5/C=C\CCCCCCC(=O)N4C3)nc(-n3cccn3)cc2c1` [Compound 33, 18-[6-methoxy-3-(pyrazol-1-yl)isoquinolin-1-yloxy]-2,15-dioxo-3,16-diazatricyclo[14.3.0.0^4,6]nonadec-7-ene-4-carboxylic acid], the EC50 is 6100 nM. On to `COc1ccc2c(O[C@@H]3C[C@H]4C(=O)N[C@]5(C(=O)NS(=O)(=O)C6CC6)C[C@H]5/C=C\CCCCCCC(=O)N4C3)nc(-n3cccn3)cc2c1` [Compound 34, N-[18-[6-methoxy-3-(pyrazol-1-yl)isoquinolin-1-yloxy]-2,15-dioxo-3,16-diazatricyclo[14.3.0.0^4,6]nonadec-7-ene-4-carbonyl](cyclopropyl)-sulfonamide], for which the EC50 amounted to 40 nM. Consider `COc1ccc2c(O[C@@H]3C[C@H]4C(=O)N[C@]5(C(=O)O)C[C@H]5/C=C\CCCCCCC(=O)N4C3)cc(-c3cscn3)nc2c1` [Compound 35, 18-[7-methoxy-2-(thiazol-4-yl)quinolin-4-yloxy]-2,15-dioxo-3,16-diazatricyclo[14.3.0.0^4,6]nonadec-7-ene-4-carboxylic acid], for which the EC50 was 1630 nM.

`COc1ccc2c(O[C@@H]3C[C@H]4C(=O)N[C@]5(C(=O)NS(=O)(=O)C6CC6)C[C@H]5/C=C\CCCCCCC(=O)N4C3)cc(-c3cscn3)nc2c1` [Compound 36, N-[18-[7-methoxy-2-(thiazol-4-yl)quinolin-4-yloxy]-2,15-dioxo-3,16-diazatricyclo[14.3.0.0^4,6]nonadec-7-ene-4-carbonyl](cyclopropyl)-sulfonamide]: the EC50 turned out to be 4 nM.

On to `COc1ccc2c(O[C@@H]3C[C@H]4C(=O)N[C@]5(C(=O)O)C[C@H]5/C=C\CCCCCCC(=O)N4C3)cc(-c3nccs3)nc2c1Br` [Compound 41, 18-[8-bromo-7-methoxy-2-(thiazol-2-yl)quinolin-4-yloxy]-2,15-dioxo-3,16-diazatricyclo[14.3.0.0^4,6]nonadec-7-ene-4-carboxylic acid], for which the concentration giving a half-maximal response (EC50) was 280 nM. `COc1ccc2c(O[C@@H]3C[C@H]4C(=O)N[C@]5(C(=O)NS(=O)(=O)C6CC6)C[C@H]5/C=C\CCCCCCC(=O)N4C3)cc(-c3nccs3)nc2c1Br` [Compound 42, N-[18-[8-bromo-2-(thiazol-2-yl)-7-methoxyquinolin-4-yloxy]-2,15-dioxo-3,16-diazatricyclo[14.3.0.0^4,6]nonadec-7-ene-4-carbonyl]-(cyclopropyl)sulfonamide]: the EC50 turned out to be 2 nM.

For the molecule `COc1ccc2c(O[C@@H]3C[C@H]4C(=O)N[C@]5(C(=O)NS(=O)(=O)C6CC6)C[C@H]5/C=C\CCCCCC(C)(C)C(=O)N4C3)cc(-c3nc(C(C)C)cs3)nc2c1Cl` [Compound 55, N-[18-[8-chloro-2-(4-isopropylthiazol-2-yl)-7-methoxyquinolin-4-yloxy]-14,14-dimethyl-2,15-dioxo-3,16-diazatricyclo[14.3.0.0^4,6]nonadec-7-ene-4-carbonyl](cyclopropyl)sulfonamide], the EC50 came out at 198 nM.
